Measured values taken from patent US20160206620A1, “PURIN DERIVATIVES FOR USE IN THE TREATMENT OF FAB-RELATED DISEASES” (Boehringer Ingelheim International GmbH, priority 2008, published 2016).

Key:
[1] = Pharmacokinetics of BI 1356 in patients with type 2 diabetes, multiple oral doses once daily for 12 days; details: for RA, AUC (accumulation ratio), gMean (gCV) / RA, Cmax (accumulation ratio), gMean (gCV) / feτ, ss, gMean (gCV): steady state (Day 12); for fe0-24, gMean (gCV): type 2 diabetes patients
[2] = 2 h postprandial blood glucose excursions in patients with type 2 diabetes; type: in vivo, human; details: already on Day 1, doses ≧2.5 mg
Source text: […]. […] […]. […] […].

[3] = clinical; details: human, urine
[4] = test system: ob/ob mice; assay: Wound healing of excisional wounds in ob/ob mice (histology, Ly6G staining); type: in vivo, mouse; details: 3 mg/kg daily
Source text: The ob/ob mice have been used and are accepted as experimental model for diabetes-impaired wound healing. These animals suffer from severe diabetes and obesity syndromes which show similar characteristics like in the human situation (e.g. obesity, insulin resistance). Insulin and diet reduce hyperglycemia in obese mice just they as they do in obese and diabetic subjects, but neither improves healing in these animals as has been shown recently.
(§1) Female C57BI/6J-ob/ob mice (Charles River, Sulzfeld) in the age of 8-9 weeks were used. 6 excisional wounds (including the panniculus carnosus) were placed on the back of each animal under ketamin anaesthesia. The animals were treated daily with 3 mg/kg of BI 1356 or methycellulose (1-2%). On day 10 an oral glucose tolerance test (2 g/kg) was performed (0, 30, 60, 90, 120 and 180 min) at the tail tip. Animals were killed under isofluran anaesthesia by cervical dislocation and wounds were excised for histological analysis. Serum was further taken for the detection of DPP-4 activity. Histology was performed in 6-8 μm paraffin embedded and paraformaldehyd fixed cuttings with eosin-hematoxylin staining. Moreover, polymorphonuclear neutrophils (PMN) were identified by immunohistological staining of Ly6G as a robust readout for wound inflammation. (Ref. S. Frank, Methods in Molecular Medicine 2003, Kämpfer, Diabetes 2006)

[5] = test system: ob/ob mice; assay: Oral glucose tolerance test in ob/ob mice; type: in vivo, mouse; details: 3 mg/kg daily, OGTT 2 g/kg on day 10
Experimental: as §1

[6] = Safety and tolerability in people with type 2 diabetes

**Q.** Which “RA, AUC (accumulation ratio), gMean (gCV)” value (shortened to “RA, AUC (accumulation ratio)”) ([1]; 1 mg oral once daily) does the source give for `CC#CCn1c(N2CCC[C@@H](N)C2)nc2c1c(=O)n(Cc1nc(C)c3ccccc3n1)c(=O)n2C` [BI 1356, 1-[(4-methyl-quinazolin-2-yl)methyl]-3-methyl-7-(2-butyn-1-yl)-8-(3-(R)-amino-piperidin-1-yl)-xanthine] here?
**A.** 2.03 (30.7)

**Q.** And the “RA, Cmax (accumulation ratio), gMean (gCV)” value (from here on “RA, Cmax (accumulation ratio)”) ([1]; 1 mg oral once daily)?
**A.** 1.44 (25.6)

**Q.** What about the “feτ, ss, gMean (gCV)” value ([1]; 1 mg oral once daily) of the same molecule?
**A.** 3.34 (38.3) %

**Q.** What about the “RA, AUC (accumulation ratio)” value ([1]; 2.5 mg oral once daily) of the same molecule?
**A.** 1.37 (8.2)

**Q.** And the “RA, Cmax (accumulation ratio)” value ([1]; 2.5 mg oral once daily)?
**A.** 1.25 (10.6)

**Q.** What about the “feτ, ss, gMean (gCV)” value ([1]; 2.5 mg oral once daily) of the same molecule?
**A.** 3.06 (45.1) %

**Q.** What about the “fe0-24, gMean (gCV)” value ([1]; 2.5 mg oral once daily) of the same molecule?
**A.** 0.139 (51.2) %

**Q.** What about the “RA, AUC (accumulation ratio)” value ([1]; 5 mg oral once daily) of the same molecule?
**A.** 1.33 (15.0)

**Q.** And the “RA, Cmax (accumulation ratio)” value ([1]; 5 mg oral once daily)?
**A.** 1.33 (30.0)

**Q.** And the “feτ, ss, gMean (gCV)” value ([1]; 5 mg oral once daily)?
**A.** 6.27 (42.2) %

**Q.** And the “fe0-24, gMean (gCV)” value ([1]; 5 mg oral once daily)?
**A.** 0.453 (125)^ %

**Q.** And the “RA, AUC (accumulation ratio)” value ([1]; 10 mg oral once daily)?
**A.** 1.18 (23.4)

**Q.** What about the “RA, Cmax (accumulation ratio)” value ([1]; 10 mg oral once daily) of the same molecule?
**A.** 1.40 (47.7)

**Q.** And the “feτ, ss, gMean (gCV)” value ([1]; 10 mg oral once daily)?
**A.** 3.22 (34.2) %

**Q.** What about the “fe0-24, gMean (gCV)” value ([1]; 10 mg oral once daily) of the same molecule?
**A.** 0.919 (115)^ %

**Q.** And the “mean accumulation ratio RA,AUC” value ([1]; doses above 1 mg, once daily oral)?
**A.** ≤ 1.4

**Q.** What about the “excreted via the kidney” value ([1]; therapeutic oral dose levels) of the same molecule?
**A.** < 7 % of the administered oral dose

**Q.** And the route of excretion ([1]; therapeutic oral dose levels)?
**A.** primarily excreted unchanged via the bile

**Q.** And the “decrease in 2 h postprandial blood glucose excursions” value [2]?
**A.** ≥ 80%

**Q.** And the CL renal ([3]; oral, 5 mg)?
**A.** ~70 mL/min

**Q.** What about the CL renal ([3]; po) of the same molecule?
**A.** 14 to 70 mL/min

**Q.** What about the “PMN accumulation in wounds (Ly6G immunohistology)” value [4] of the same molecule?
**A.** overall reduction of PMN accumulation

**Q.** And the “wound morphology and wound re-epithelialization (histology)” value [4]?
**A.** profound improvement of wound morphology and wound re-epithelialization

**Q.** What about the “distance between wound margin epithelia (wound size)” value ([4]; treated for 12 day, control 2.02±1.07 mm) of the same molecule?
**A.** 0.74±0.90 mm

**Q.** What about the “reduction of glucose excursion following oral glucose tolerance assay (absolute AUC)” value [5] of the same molecule?
**A.** 25%

**Q.** What about the safety and tolerability [6] of the same molecule?
**A.** placebo-like safety and tolerability
